{"source": "PubChem BioAssay AID2060614", "about": "(Molecular Pharmacology Branch, DTP, NCI, 2025)", "tested_on": "598228-144-R-J1-PDC complex spheroids, viability", "test": "Anticancer human tumor 598228-144-R-J1-PDC patient-derived serous endometrial adenocarcinoma cell line growth inhibition [CLK]", "conditions": "for IC50: curve of first compound; for viability, T/C: stronger effect = lower value", "in_short": "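Multi-cell-type spheroids combined patient-derived tumor cells with HUVEC endothelial cells and human mesenchymal stem cells. Paired agents were dosed in half-log steps down from about clinical Cmax, or from 10 microM where Cmax was unknown.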", "data": [{"molecule": "C=CC(=O)Nc1cc(Nc2nccc(-c3cn(C)c4ccccc34)n2)c(OC)cc1N(C)CCN(C)C", "note": "+ CNC(=O)c1ccc(Nc2nc(OC3CCCC3)c3c(-c4ccc5nc(C)oc5c4)c[nH]c3n2)c(OC)c1;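 also: spheroids exposed to compounds for seven days before readout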;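 as to viability, T/C: 100% = DMSO vehicle control wells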", "values": [{"measurement": "IC50", "setting": "second compound 0.0316 µM", "result": "> 300", "unit": "nM"}, {"measurement": "IC50", "setting": "second compound 0.1 µM", "result": "> 300", "unit": "nM"}, {"measurement": "IC50", "setting": "second compound 0.316 µM", "result": "> 300", "unit": "nM"}, {"measurement": "IC50", "setting": "second compound 1 µM", "result": "> 300", "unit": "nM"}, {"measurement": "IC50", "setting": "second compound 3.16 µM", "result": "> 300", "unit": "nM"}, {"measurement": "IC50", "setting": "second compound 10 µM", "result": "> 300", "unit": "nM"}, {"measurement": "viability, T/C", "setting": "second compound 0.0316 µM, first compound 0.000949 µM", "result": 124, "unit": "%"}, {"measurement": "viability, T/C", "setting": "second compound 0.0316 µM, first compound 0.003 µM", "result": 113, "unit": "%"}, {"measurement": "viability, T/C", "setting": "second compound 0.0316 µM, first compound 0.00949 µM", "result": 107, "unit": "%"}, {"measurement": "viability, T/C", "setting": "second compound 0.0316 µM, first compound 0.03 µM", "result": 115, "unit": "%"}, {"measurement": "viability, T/C", "setting": "second compound 0.0316 µM, first compound 0.0949 µM", "result": 101, "unit": "%"}, {"measurement": "viability, T/C", "setting": "second compound 0.0316 µM, first compound 0.3 µM", "result": 105, "unit": "%"}, {"measurement": "viability, T/C", "setting": "second compound 0.1 µM, first compound 0.000949 µM", "result": 120, "unit": "%"}, {"measurement": "viability, T/C", "setting": "second compound 0.1 µM, first compound 0.003 µM", "result": 103, "unit": "%"}, {"measurement": "viability, T/C", "setting": "second compound 0.1 µM, first compound 0.00949 µM", "result": 104, "unit": "%"}, {"measurement": "viability, T/C", "setting": "second compound 0.1 µM, first compound 0.03 µM", "result": 104, "unit": "%"}, {"measurement": "viability, T/C", "setting": "second compound 0.1 µM, first compound 0.0949 µM", "result": 103, "unit": "%"}, {"measurement": "viability, T/C", "setting": "second compound 0.1 µM, first compound 0.3 µM", "result": 78.3, "unit": "%"}, {"measurement": "viability, T/C", "setting": "second compound 0.316 µM, first compound 0.000949 µM", "result": 112, "unit": "%"}, {"measurement": "viability, T/C", "setting": "second compound 0.316 µM, first compound 0.003 µM", "result": 109, "unit": "%"}, {"measurement": "viability, T/C", "setting": "second compound 0.316 µM, first compound 0.00949 µM", "result": 120, "unit": "%"}, {"measurement": "viability, T/C", "setting": "second compound 0.316 µM, first compound 0.03 µM", "result": 93.5, "unit": "%"}, {"measurement": "viability, T/C", "setting": "second compound 0.316 µM, first compound 0.0949 µM", "result": 96.5, "unit": "%"}, {"measurement": "viability, T/C", "setting": "second compound 0.316 µM, first compound 0.3 µM", "result": 77.7, "unit": "%"}, {"measurement": "viability, T/C", "setting": "second compound 1 µM, first compound 0.000949 µM", "result": 104, "unit": "%"}, {"measurement": "viability, T/C", "setting": "second compound 1 µM, first compound 0.003 µM", "result": 90.3, "unit": "%"}, {"measurement": "viability, T/C", "setting": "second compound 1 µM, first compound 0.00949 µM", "result": 90.5, "unit": "%"}, {"measurement": "viability, T/C", "setting": "second compound 1 µM, first compound 0.03 µM", "result": 99, "unit": "%"}, {"measurement": "viability, T/C", "setting": "second compound 1 µM, first compound 0.0949 µM", "result": 91.2, "unit": "%"}, {"measurement": "viability, T/C", "setting": "second compound 1 µM, first compound 0.3 µM", "result": 94.1, "unit": "%"}, {"measurement": "viability, T/C", "setting": "second compound 3.16 µM, first compound 0.000949 µM", "result": 101, "unit": "%"}, {"measurement": "viability, T/C", "setting": "second compound 3.16 µM, first compound 0.003 µM", "result": 102, "unit": "%"}, {"measurement": "viability, T/C", "setting": "second compound 3.16 µM, first compound 0.00949 µM", "result": 80.9, "unit": "%"}, {"measurement": "viability, T/C", "setting": "second compound 3.16 µM, first compound 0.03 µM", "result": 87.6, "unit": "%"}, {"measurement": "viability, T/C", "setting": "second compound 3.16 µM, first compound 0.0949 µM", "result": 82.7, "unit": "%"}, {"measurement": "viability, T/C", "setting": "second compound 3.16 µM, first compound 0.3 µM", "result": 62.3, "unit": "%"}, {"measurement": "viability, T/C", "setting": "second compound 10 µM, first compound 0.000949 µM", "result": 86.5, "unit": "%"}, {"measurement": "viability, T/C", "setting": "second compound 10 µM, first compound 0.003 µM", "result": 86.4, "unit": "%"}, {"measurement": "viability, T/C", "setting": "second compound 10 µM, first compound 0.00949 µM", "result": 86.3, "unit": "%"}, {"measurement": "viability, T/C", "setting": "second compound 10 µM, first compound 0.03 µM", "result": 73.1, "unit": "%"}, {"measurement": "viability, T/C", "setting": "second compound 10 µM, first compound 0.0949 µM", "result": 77.5, "unit": "%"}, {"measurement": "viability, T/C", "setting": "second compound 10 µM, first compound 0.3 µM", "result": 60.7, "unit": "%"}]}]}
